{"source": "patent EP3322687B1", "about": "“2-BENZYL-INDANONE COMPOUNDS AS ANTICANCER AGENT AND A PROCESS FOR PREPARATION THEREOF” (Council of Scientific and Industrial Research, priority 2015, dated 2017)", "key": {"[1]": {"test_system": "Ehrlich Tumor (solid)", "assay_type": "in vivo, Swiss mice", "experimental": "Ehrlich ascites carcinoma (EAC) cells were collected from the peritoneal cavity of the Swiss mice harbouring 8-10 days old ascitic tumor. 1x10^7 EAC cells were injected intramuscularly in right thigh of Swiss male mice selected for the experiment on day 0. The next day, animals were randomized and divided into different groups. Two treatment groups contained 7 animals each and one control group contained 10 animals. The first treatment group was given compound 2 (20 mg/kg i/p) from day 1-9. The second treatment group was treated with 5-fluorouracil (22 mg/kg, i.p) from day 1-9 and it served as positive control. The control group was similarly administered normal saline (0.2 ml, i.p.) from day 1-9. On day 9 & 13, tumor bearing thigh of each animal was shaved and longest and shortest diameters of the tumor were measured with the help of vernier caliper. Tumor weight of each animal was calculated using the following formula. Tumor weight (mg) = (Length(mm) × ([width(mm)])^2)/(2) [formula]\nThe percent tumor growth inhibition was calculated on day 13 by comparing the average values of treated groups with that of control group. Tumor growth in saline treated control animals was taken to be 100%. Table 6. In-vivo anticancer activity of 2 against Ehrlich ascites carcinoma (solid)"}, "[2]": {"test_system": "A549 (Lung)", "test": "Sulforhodamine B cytotoxicity assay", "assay_type": "cell-based", "details": "Homo sapiens, A549, 48 h, read-out: Human cancer cell lines IC50 A549 (Lung)", "experimental": "(§1) The benzyl compounds were evaluated by Sulforhodamine B Assay as per reported method [Skehan etal., J. Natl. Cancer Inst.1990, 82, 1107]. The human cancer cell lines procured from National Cancer Institute, Frederick, U. S. A. were used in present study. Cells were grown in tissue culture flasks in complete growth medium (RPMI-1640 medium with 2 mM glutamine, pH 7.4 supplemented with 10% fetal bovine serum, 100 µg/ml streptomycin and 100 units/ml penicillin) in a carbon dioxide incubator (37°C, 5% CO2, 90% RH). The cells at subconfluent stage were harvested from the flask by treatment with trypsin (0.05% in PBS (pH 7.4) containing 0.02% EDTA). Cells with viability of more than 98%, as determined by trypan blue exclusion, were used for determination of cytotoxicity. The cell suspension required concentration of cells was prepared in complete growth medium. Stock solution of 2x10^-2 M of compounds were prepared in DMSO and further dilution was carried out complete growth medium containing 50µg/ml of gentamycin to obtained working test solution of required concentration. In vitro cytotoxicity against various human cancer cell lines was determined using 96-well cell culture plates. The 100µl of cell suspension was added to each well of the 96-well cell culture plates. The cells were allowed to grow in CO2 incubator (37°C, 5% CO2, 90% RH) for 24 hours. The test materials in complete growth medium (100 µl) were added after 24 hours incubation to the wells containing cell suspension. The plates were further incubated for 48 hours (37°C in an atmosphere of 5% CO2 and 90% relative humidity) in a carbon dioxide incubator after addition of test material and then the cell growth was stopped by gently layering trichloroacetic acid (50% TCA, 50 µl) on top of the medium in all the wells. The plates were incubated at 4°C for one hour to fix the cells attached to the bottom of the wells. The liquid of all the wells was gently pipetted out and discarded. The plates were washed five times with distilled water to remove TCA, growth medium low molecular weight metabolites, serum proteins etc. and air - dried. Cell growth was measured by staining with sulforhodamine B dye. The adsorbed dye was dissolved in Tris-HCl Buffer (100 µl/well, 0.01M, pH 10.4) and plates were gently stirred for 10 minutes on a mechanical stirrer. The optical density (OD) was recorded on ELISA reader at 540nm. Paclitaxel (Taxol), and 5-Fluorouracil were used as positive controls (Standard drugs)."}, "[3]": {"test_system": "T-47D (Breast cancer)", "test": "Sulforhodamine B cytotoxicity assay", "assay_type": "cell-based", "details": "Homo sapiens, T47D, 48 h, read-out: Human cancer cell lines IC50 T-47D (Breast cancer)", "experimental": "as §1"}, "[4]": {"test_system": "HCT-116 (Colon)", "test": "Sulforhodamine B cytotoxicity assay", "assay_type": "cell-based", "details": "Homo sapiens, HCT-116, 48 h, read-out: Human cancer cell lines IC50 HCT-116 (Colon)", "experimental": "as §1"}, "[5]": {"test_system": "THP-1 (Leukemia)", "test": "Sulforhodamine B cytotoxicity assay", "assay_type": "cell-based", "details": "Homo sapiens, THP-1, 48 h, read-out: Human cancer cell lines IC50 THP-1 (Leukemia)", "experimental": "as §1"}, "[6]": {"test_system": "MCF-7 (Breast cancer)", "test": "Sulforhodamine B cytotoxicity assay", "assay_type": "cell-based", "details": "Homo sapiens, MCF7, 48 h, read-out: Human cancer cell lines IC50 MCF-7 (Breast cancer)", "experimental": "as §1"}, "[7]": {"test_system": "tubulin protein", "assay_type": "biochemical", "details": "tubulin 3mg/mL, 37° C, 340 nm, 1h; read-out: Tubulin polymerisation inhibition IC50", "experimental": "The tubulin polymerization experiment was performed using 'assay kit'(Cytoskeleton USA) following manufacturer's protocol based on the procedure described by of Shelanski et al, (1973) and Lee et al. (1977). Briefly, tubulin protein (3mg/mL) in tubulin polymerization buffer (80 mM PIPES, pH 6.9, 2 mM MgCl2, 0.5 mM EGTA, 1 mM GTP and 15% glycerol) was placed in prewarmed 96-well microtiter plates at 37° C in the presence of test compounds with variable concentrations. All samples were mixed well and polymerization was monitored kinetically at 340 nm every min for 1h using a Spectramax plate reader. The IC50 value was determined from dose-dependent analysis and is defined as the concentration that inhibits the rate of polymerization by 50%. Podophyllotoxin was used as standard tubulin polymerisation inhibitor as positive control."}, "[8]": {"test_system": "various human cancer cell lines", "test": "Cytotoxicity against various human cancer cell lines (summary statement)", "assay_type": "cell-based", "details": "read-out: cytotoxicity against various human cancer cell lines, IC50", "experimental": "The benzyl compounds were evaluated by Sulforhodamine B Assay as per reported method [Skehan etal., J. Natl. Cancer Inst.1990, 82, 1107]. The human cancer cell lines procured from National Cancer Institute, Frederick, U. S. A. were used in present study. Cells were grown in tissue culture flasks in complete growth medium (RPMI-1640 medium with 2 mM glutamine, pH 7.4 supplemented with 10% fetal bovine serum, 100 µg/ml streptomycin and 100 units/ml penicillin) in a carbon dioxide incubator (37°C, 5% CO2, 90% RH). The cells at subconfluent stage were harvested from the flask by treatment with trypsin (0.05% in PBS (pH 7.4) containing 0.02% EDTA). Cells with viability of more than 98%, as determined by trypan blue exclusion, were used for determination of cytotoxicity. The cell suspension required concentration of cells was prepared in complete growth medium. Stock solution of 2x10^-2 M of compounds were prepared in DMSO and further dilution was carried out complete growth medium containing 50µg/ml of gentamycin to obtained working test solution of required concentration. In vitro cytotoxicity against various human cancer cell lines was determined using 96-well cell culture plates. […] Cell growth was measured by staining with sulforhodamine B dye. […] The optical density (OD) was recorded on ELISA reader at 540nm. […]"}}, "note": "Several values for one entry are separate records, joined by “and”; a condition that tells them apart may be missing. Identical values can stand only once."}
{"compound": "COc1cc(C2c3c(cc(OC)c(OC)c3OC)C(=O)C2Cc2ccc3c(c2)OCO3)cc(OC)c1OC", "note": "(stereo not shown) [Compound 2, 2-(3\",4\"-methylenedioxybenzyl)-3-(3',4',5'-trimethoxyphenyl)-4,5,6-trimethoxy-indan-1-one]", "values": [{"measurement": "Day 13 Av. Tumor weights", "setting": "[1]; 20 mg/kg i/p day 1-9, Day 13", "result": "1178.35 ± 32.72", "unit": "mg"}, {"measurement": "%Tumor Growth Inhibition", "setting": "[1]; 20 mg/kg i/p day 1-9, day 13", "result": "42.77% and 42.771%"}, {"measurement": "Mortality", "setting": "[1]; 20 mg/kg i/p day 1-9, dead/total animals", "result": "0/7"}, {"measurement": "Day 13 Av. Body weights", "setting": "[1]; 20 mg/kg i/p day 1-9, male Swiss mice, Day 13", "result": 23.28, "unit": "g"}, {"measurement": "Av. Body weights (g) of animals on days 1", "setting": "[1]; 20 mg/kg i/p day 1-9, male Swiss mice, day 1", "result": 21.42, "unit": "g"}, {"measurement": "better activity (in-vivo) over the parent compound 12", "setting": "[1]; solid tumour, 20mg/kg dose, relative to compound 12", "result": 19.1, "unit": "%"}, {"measurement": "IC50", "setting": "[2]", "result": 2000, "unit": "nM"}, {"measurement": "IC50", "setting": "[3]", "result": "< 1000", "unit": "nM"}, {"measurement": "IC50", "setting": "[4]", "result": 3000, "unit": "nM"}, {"measurement": "IC50", "setting": "[5]", "result": 1000, "unit": "nM"}, {"measurement": "IC50", "setting": "[6]", "result": 3000, "unit": "nM"}, {"measurement": "IC50", "setting": "[7]", "result": 2080, "unit": "nM"}, {"measurement": "IC50", "setting": "[8]", "result": "1000 to 3000", "unit": "nM"}]}
